In US9216954B2, “Serine racemase inhibitor” (National University Corporation University of Toyama, priority 2012, dated 2015):

Row | SMILES | melting point [°C]
1 | O=C(CNS(=O)(=O)Cc1ccccc1)Nc1c(F)cccc1F [DR-1, N-(2,6-difluorophenyl)-2-phenylmethanesulfonylaminoacetamide] | 141 to 142
2 | Cc1ccc(S(=O)(=O)NCC(=O)Nc2c(F)cccc2F)cc1 [DR-2, N-(2,6-Difluoro-phenyl)-2-(toluene-4-sulfonylamino)-acetamide] | 129 to 130
3 | CC(NC(=O)CNS(=O)(=O)Cc1ccccc1)c1ccccc1 (centres unmarked) [DR-3, N-(1-Phenyl-ethyl)-2-phenylmethanesulfonylamino-acetamide] | 147 to 148
4 | Cc1ccc(S(=O)(=O)NCC(=O)NCc2ccc(Br)cc2)cc1 [DR-10, N-(4-Bromo-benzyl)-2-(toluene-4-sulfonylamino)-acetamide] | 207 to 208
5 | Cc1ccc(S(=O)(=O)NCC(=O)NCc2ccc(Br)cc2F)cc1 [DR-11, N-(4-Bromo-2-fluoro-benzyl)-2-(toluene-4-sulfonylamino)-acetamide] | 123 to 124
6 | O=C(CNS(=O)(=O)Cc1ccccc1)Nc1cccc(Br)c1 [DR-12, N-(3-bromophenyl)-2-phenylmethanesulfonylaminoacetamide] | 215 to 216
7 | O=C(CNS(=O)(=O)Cc1ccccc1)Nc1ccc(Cl)cc1 [DR-14, N-(4-Chloro-phenyl)-2-phenylmethanesulfonylamino-acetamide] | 200 to 201
8 | Cc1ccc(/C=C/S(=O)(=O)NCC(=O)NCc2ccc(Br)cc2)cc1 [DR-31, N-(4-Bromo-benzyl)-2-(2-p-tolyl-ethenesulfonylamino)-acetamide] | 200 to 201
9 | COc1ccc(NC(=O)CNS(=O)(=O)/C=C/c2ccc(C)cc2)cc1 [DR-32, N-(4-Methoxy-phenyl)-2-(2-p-tolyl-ethenesulfonylamino)-acetamide] | 145 to 146
10 | Cc1ccc(/C=C/S(=O)(=O)NCC(=O)Nc2ccc(Br)cc2)cc1 [DR-33, N-(4-Bromo-phenyl)-2-(2-p-tolyl-ethenesulfonylamino)-acetamide] | 216 to 219

Second part, the compound after the results:

Row | melting point [°C] | SMILES
11 | 232 to 233 | O=C(/C=C/c1ccc(Cl)cc1)NC(=S)NNC(=O)Cc1cccs1 [LW-1, 3-(4-Chloro-phenyl)-N—[N′-(2-thiophen-2-yl-acetyl)-hydrazinocarbothioyl]-acrylamide]
12 | 219 to 220 | O=C(/C=C/c1c(Cl)cc(Cl)cc1Cl)NC(=S)NNC(=O)Cc1cccs1 [LW-2, N—[N′-(2-Thiophen-2-yl-acetyl)-hydrazinocarbothioyl]-3-(2,4,6-trichloro-phenyl)-acrylamide]
13 | 222 to 223 | O=C(/C=C/c1ccc([N+](=O)[O-])cc1)NC(=S)NNC(=O)Cc1cccs1 [LW-3, 3-(4-Nitro-phenyl)-N—[N′-(2-thiophen-2-yl-acetyl)-hydrazinocarbothioyl]-acrylamide]
14 | 212 to 213 | Cc1ccc(/C=C/C(=O)NC(=S)NNC(=O)Cc2cccs2)cc1 [LW-4, N—[N′-(2-Thiophen-2-yl-acetyl)-hydrazinocarbothioyl]-3-p-tolyl-acrylamide]
15 | 207 to 208 | COc1ccc(/C=C/C(=O)NC(=S)NNC(=O)Cc2cccs2)c(OC)c1 [LW-6, 3-(2,4-Dimethoxy-phenyl)-N—[N′-(2-thiophen-2-yl-acetyl)-hydrazinocarbothioyl]-acrylamide]
16 | 212 to 213 | O=C(/C=C/c1cc(Br)cc(Br)c1)NC(=S)NNC(=O)Cc1cccs1 [LW-7, 3-(3,5-Dibromo-phenyl)-N—[N′-(2-thiophen-2-yl-acetyl)-hydrazinocarbothioyl]-acrylamide]
17 | 201 to 202 | CC(C)c1ccc(/C=C/C(=O)NC(=S)NNC(=O)Cc2cccs2)cc1 [LW-8, 3-(4-Isopropyl-phenyl)-N—[N′-(2-thiophen-2-yl-acetyl)-hydrazinocarbothioyl]-acrylamide]
18 | 231 to 232 | O=C(/C=C/c1ccc(-c2ccccc2)cc1)NC(=S)NNC(=O)Cc1cccs1 [LW-9, 3-Biphenyl-4-yl-N—[N′-(2-thiophen-2-yl-acetyl)-hydrazinocarbothioyl]-acrylamide]
19 | 220 to 221 | COc1cccc(OC)c1/C=C/C(=O)NC(=S)NNC(=O)Cc1cccs1 [LW-10, 3-(2,6-Dimethoxy-phenyl)-N—[N′-(2-thiophen-2-yl-acetyl)-hydrazinocarbothioyl]-acrylamide]
20 | 207 to 208 | O=C(/C=C/c1c(F)cc(F)cc1F)NC(=S)NNC(=O)Cc1cccs1 [LW-11, N—[N′-(2-Thiophen-2-yl-acetyl)-hydrazinocarbothioyl]-3-(2,4,6-trifluoro-phenyl)-acrylamide]
21 | 212 to 213 | O=C(/C=C/c1ccc(F)cc1)NC(=S)NNC(=O)Cc1ccccc1 [LW-12, 3-(4-Fluoro-phenyl)-N—(N′-phenylacetyl-hydrazinocarbothioyl)-acrylamide]
22 | 210 to 211 | O=C(/C=C/c1c(F)cc(F)cc1F)NC(=S)NNC(=O)Cc1ccccc1 [LW-14, N—(N′-Phenylacetyl-hydrazinocarbothioyl)-3-(2,4,6-trifluoro-phenyl)-acrylamide]
23 | 217 to 218 | O=C(/C=C/c1ccc(F)cc1)NC(=S)NNC(=O)c1cccs1 [LW-16, 3-(4-Fluoro-phenyl)-N—[N′-(thiophene-2-carbonyl)-hydrazinocarbothioyl]-acrylamide]
24 | 161 to 162 | O=C(Cc1cccs1)NNC(=S)NC(=O)Cc1ccccc1 [LW-18, 2-Phenyl-N—[N′-(2-thiophen-2-yl-acetyl)-hydrazinocarbothioyl]-acetamide]
25 | 209 to 210 | COc1cccc(OC)c1/C=C/C(=O)NC(=S)NNC(=O)c1cccs1 [LW-19, 3-(2,6-Dimethoxy-phenyl)-N—[N′-(thiophene-2-carbonyl)-hydrazinocarbothioyl]-acrylamide]
26 | 217 to 218 | O=C(/C=C/c1cc(Br)cc(Br)c1)NC(=S)NNC(=O)c1cccs1 [LW-20, 3-(3,5-Dibromo-phenyl)-N—[N′-(thiophene-2-carbonyl)-hydrazinocarbothioyl]-acrylamide]
27 | 195 to 196 | O=C(/C=C/c1cc(Br)cc(Br)c1)NC(=S)NNC(=O)Cc1ccc(F)cc1 [LW-21, 3-(3,5-Dibromo-phenyl)-N-{N′-[2-(4-fluoro-phenyl)-acetyl]hydrazinocarbothioyl}-acrylamide]
28 | 182 to 183 | O=C(Cc1ccc(F)cc1)NNC(=S)NC(=O)Cc1ccccc1 [LW-22, N-{N′-[2-(4-Fluoro-phenyl)-acetyl]-hydrazinocarbothioyl}-2-phenyl-acetamide]
29 | 224 to 225 | O=C(/C=C/c1cc(Br)cc(Br)c1)NC(=S)NNC(=O)c1ccccc1 [LW-23, N—(N′-Benzoyl-hydrazinocarbothioyl)-3-(3,5-dibromo-phenyl)-acrylamide]
30 | 203 to 204 | Cc1cccc(CC(=O)NNC(=S)NC(=O)/C=C/c2cc(Br)cc(Br)c2)c1 [LW-24, 3-(3,5-Dibromo-phenyl)-N—[N′-(2-m-tolyl-acetyl)-hydrazinocarbothioyl]-acrylamide]
31 | 149 to 150 | Cc1cccc(CC(=O)NNC(=S)NC(=O)Cc2ccccc2)c1 [LW-25, 2-Phenyl-N—[N′-(2-m-tolyl-acetyl)-hydrazinocarbothioyl]-acetamide]
32 | 202 to 203 | COc1cccc(CC(=O)NNC(=S)NC(=O)/C=C/c2cc(Br)cc(Br)c2)c1 [LW-26, 3-(3,5-Dibromo-phenyl)-N-{N′-[2-(3-methoxy-phenyl)-acetyl]-hydrazinocarbothioyl}-acrylamide]
